Data set [1] in a line: Pharmacokinetic study of the racemate of the compound of formula (I) in SD rats. Type of data set: in vivo. How it is done: 2.1 Pharmacokinetic Study of the Racemate of the Compound of Formula (I) in SD Rats
Experimental purpose: To study the pharmacokinetics of the compounds in SD rats
Experimental material: SD rats (male, 7-10 weeks old, WTLH/SLAC)
Experimental procedure: The pharmacokinetic characteristics of the compounds were tested in rodents after intravenous (IV) and oral (PO) administration using standard protocols. The candidate compounds were prepared into 0.2 mg/mL clarified solutions and administrated to rats for single intravenous injection and oral administration. The solvent for both intravenous and oral administration was 5% DMSO/95% (10% hydroxypropyl β-cyclodextrin) aqueous solution. […] Whole blood samples were collected within 24 hours, centrifuged at 3000 g for 15 minutes, and the supernatant was separated to obtain plasma samples, and the proteins were precipitated by adding acetonitrile solution containing internal standard; the mixture was well mixed and centrifuged, and the supernatant was injected for quantitative analysis of plasma drug concentrations by LC-MS/MS analysis method, and pharmacokinetic parameters were calculated, such as peak concentration (Cmax), clearance rate (CL), half-life (T1/2), […] (Vdss), area under the drug-time curve (AUC0-last), bioavailability (F), etc.

Another data set concerns the target ROCK1 (Homo sapiens, UniProt Q13464). As to the kind of experiment: In vitro evaluation of ROCK protein kinase inhibitory activity (33P-ATP filter-binding), ROCK1. Type of data set: biochemical. Particulars: 1 nM kinase, 20 μM Long S6 Kinase substrate peptide, 2 hours room temperature. How it is done:
(§1) 1. In Vitro Evaluation of ROCK Protein Kinase Inhibitory Activity
(§2) Experimental purpose: To detect the IC50 value of ROCK protein kinase inhibition of compounds.
(§3) Experimental materials: assay buffer solution: 20 mM 4-hydroxyethyl piperazine ethanesulfonic acid (pH 7.5), 10 mM magnesium chloride, 1 mM ethylene glycol diethyl ether diaminetetraacetic acid, 0.02% polyoxyethylene lauryl ether, 0.02 mg/mL bovine serum albumin, 0.1 mM sodium vanadate, 2 mM dithiothreitol, 1% DMSO.
Experimental operation: ROCK protein kinase substrate Long S6 Kinase substrate peptide was added to a freshly prepared buffer solution at a concentration of 20 μM, then 1 nM ROCK protein kinase was added, and the mixture was stirred evenly. A series of DMSO diluents containing the compounds to be tested were added with Echo550 (started at […], diluted by 3 times series), preincubated at room temperature for 20 minutes, and ^33P-ATP (radiation intensity 10 μCi/μL) was added to initiate the reaction, and the reaction was carried out for 2 hours at room temperature. […] Radiation intensity was detected using the Filter-Binding method.
(§4) The protein kinase inhibitory activity of the compound was expressed as the residual protein kinase activity relative to the blank substrate (DMSO alone). IC50 values and curves were calculated using the Prism software package (GraphPad Software, San Diego Calif., USA).

The next data set has as its target ROCK2 (Homo sapiens, UniProt O75116). As to the kind of experiment: In vitro evaluation of ROCK protein kinase inhibitory activity (33P-ATP filter-binding), ROCK2. Type of data set: biochemical. As for the experimental part:
as §1, §2, §3
Experimental operation: ROCK protein kinase substrate Long S6 Kinase substrate peptide was added to a freshly prepared buffer solution at a concentration of 20 μM, then 1 nM ROCK protein kinase was added, and the mixture was stirred evenly. A series of DMSO diluents containing the compounds to be tested were added with Echo550 (started at […], diluted by 3 times series), preincubated at room temperature for 20 minutes, and ^33P-ATP (radiation intensity 10 μCi/μL) was added to initiate the reaction, and the reaction was carried out for 2 hours at room temperature. The mixture was then filtered using P81 ion exchange paper (Whatman #3698-915) and washed with 0.75% phosphoric acid. Radiation intensity was detected using the Filter-Binding method.
as §4

A short description of data set [2]: Solid stability test of the crystal form B of the compound of formula (II-2) (XRPD). Type of data set: physicochemical. How it is done: About 10 mg of the crystal form was accurately weighed and added to a dry and clean glass flask, spread into a thin layer, covered with aluminum foil, pierced small holes and placed under the influence factor test conditions and under accelerated conditions. Samples placed under illumination (visible light 1200000 Lux, UV 200 W) conditions were placed in clear glass flasks, fully exposed, and samples used for XRPD detection were placed separately.
After the samples were removed at the time point, the cover was covered, and the flask was sealed using sealing film, and stored in −20° C. refrigerator. When preparing the sample, the sample was removed from the refrigerator, restored to room temperature; 80% ACN (10 mL) was added, and the sample was dissolved by sonication for 2 min to obtain a solution with a concentration of about 1 mg/mL, then the liquid phase was used for injection analysis, and the detection results were compared with the initial detection results on day 0.
Preparation of standard solution on day 0: About 10 mg of the crystal form was weighed and added to a 10 mL volumetric flask, dissolved with 80% ACN and the volume was fixed to the scale.

ROCK2, sequence (O75116 whole entry): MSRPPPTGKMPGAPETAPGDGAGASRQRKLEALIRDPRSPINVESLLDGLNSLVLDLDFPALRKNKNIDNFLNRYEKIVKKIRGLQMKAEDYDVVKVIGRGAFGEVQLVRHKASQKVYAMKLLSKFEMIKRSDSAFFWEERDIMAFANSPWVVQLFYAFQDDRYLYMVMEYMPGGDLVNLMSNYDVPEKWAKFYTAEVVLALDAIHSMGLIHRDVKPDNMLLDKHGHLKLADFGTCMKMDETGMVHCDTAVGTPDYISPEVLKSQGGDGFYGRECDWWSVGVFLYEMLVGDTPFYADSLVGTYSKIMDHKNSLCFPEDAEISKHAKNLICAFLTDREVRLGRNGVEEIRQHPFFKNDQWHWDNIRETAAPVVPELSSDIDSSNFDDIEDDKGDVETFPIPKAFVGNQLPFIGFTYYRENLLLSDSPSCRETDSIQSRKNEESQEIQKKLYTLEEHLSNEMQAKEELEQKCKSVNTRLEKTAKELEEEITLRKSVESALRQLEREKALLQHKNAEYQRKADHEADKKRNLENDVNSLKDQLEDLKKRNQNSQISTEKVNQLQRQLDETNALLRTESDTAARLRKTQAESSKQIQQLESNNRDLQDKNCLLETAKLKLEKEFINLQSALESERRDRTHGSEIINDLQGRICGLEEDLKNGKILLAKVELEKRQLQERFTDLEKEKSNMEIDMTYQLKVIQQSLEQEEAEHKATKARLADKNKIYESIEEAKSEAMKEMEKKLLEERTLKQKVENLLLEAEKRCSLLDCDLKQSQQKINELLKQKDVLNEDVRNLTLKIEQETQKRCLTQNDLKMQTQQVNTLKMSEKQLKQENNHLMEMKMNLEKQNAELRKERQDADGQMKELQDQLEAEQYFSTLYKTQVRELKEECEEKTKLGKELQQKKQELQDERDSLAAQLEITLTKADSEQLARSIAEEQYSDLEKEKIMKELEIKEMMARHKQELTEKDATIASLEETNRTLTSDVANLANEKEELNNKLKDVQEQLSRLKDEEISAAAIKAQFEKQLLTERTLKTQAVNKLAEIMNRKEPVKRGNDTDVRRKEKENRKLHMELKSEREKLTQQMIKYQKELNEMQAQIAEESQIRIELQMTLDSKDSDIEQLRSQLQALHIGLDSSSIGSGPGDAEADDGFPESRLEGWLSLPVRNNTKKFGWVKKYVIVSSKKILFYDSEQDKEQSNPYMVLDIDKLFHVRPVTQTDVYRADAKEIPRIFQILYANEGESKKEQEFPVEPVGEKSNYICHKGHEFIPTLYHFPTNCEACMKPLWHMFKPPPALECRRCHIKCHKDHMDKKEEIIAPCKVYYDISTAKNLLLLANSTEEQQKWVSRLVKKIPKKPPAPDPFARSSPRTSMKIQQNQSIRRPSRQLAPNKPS
ROCK1, sequence (Q13464 whole entry): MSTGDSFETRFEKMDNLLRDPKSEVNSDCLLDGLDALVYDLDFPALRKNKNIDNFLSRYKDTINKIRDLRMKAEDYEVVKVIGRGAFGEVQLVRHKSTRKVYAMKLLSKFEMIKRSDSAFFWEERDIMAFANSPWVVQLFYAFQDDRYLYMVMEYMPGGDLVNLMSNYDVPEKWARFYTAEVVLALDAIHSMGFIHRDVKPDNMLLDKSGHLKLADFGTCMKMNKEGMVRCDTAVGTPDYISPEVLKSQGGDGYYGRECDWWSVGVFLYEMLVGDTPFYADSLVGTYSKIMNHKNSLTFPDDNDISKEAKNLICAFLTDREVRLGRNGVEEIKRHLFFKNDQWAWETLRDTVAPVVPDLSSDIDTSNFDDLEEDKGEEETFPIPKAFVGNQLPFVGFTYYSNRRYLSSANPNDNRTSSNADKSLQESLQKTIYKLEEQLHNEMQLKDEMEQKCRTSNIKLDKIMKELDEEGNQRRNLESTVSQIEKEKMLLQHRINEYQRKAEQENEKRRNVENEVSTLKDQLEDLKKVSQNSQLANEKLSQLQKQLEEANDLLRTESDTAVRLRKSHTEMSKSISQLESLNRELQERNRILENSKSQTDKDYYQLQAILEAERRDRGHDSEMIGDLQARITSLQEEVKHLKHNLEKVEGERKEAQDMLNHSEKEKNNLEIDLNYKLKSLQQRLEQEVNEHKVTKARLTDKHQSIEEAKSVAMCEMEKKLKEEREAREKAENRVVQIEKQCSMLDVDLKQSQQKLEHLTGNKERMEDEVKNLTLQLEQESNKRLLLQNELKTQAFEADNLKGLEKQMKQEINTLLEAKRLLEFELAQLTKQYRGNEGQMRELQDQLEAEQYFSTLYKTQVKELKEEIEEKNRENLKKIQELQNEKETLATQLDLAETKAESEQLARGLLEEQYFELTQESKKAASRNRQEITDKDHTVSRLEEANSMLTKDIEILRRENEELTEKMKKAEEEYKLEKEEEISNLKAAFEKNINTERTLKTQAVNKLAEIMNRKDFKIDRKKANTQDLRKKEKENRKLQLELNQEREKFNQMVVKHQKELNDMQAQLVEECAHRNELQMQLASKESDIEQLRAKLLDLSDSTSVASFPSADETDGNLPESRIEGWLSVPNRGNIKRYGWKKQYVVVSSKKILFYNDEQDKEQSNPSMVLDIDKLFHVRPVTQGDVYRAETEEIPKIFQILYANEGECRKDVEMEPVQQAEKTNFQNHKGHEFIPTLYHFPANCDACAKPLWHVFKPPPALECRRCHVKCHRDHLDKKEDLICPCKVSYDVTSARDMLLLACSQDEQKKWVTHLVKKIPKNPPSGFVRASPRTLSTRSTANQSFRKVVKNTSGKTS

`COc1cccc(C(CN)NC(=O)c2cc(-c3ccc4[nH]nc(C)c4c3)ccn2)c1` (racemic) [Racemate of compound of formula (I)]: in data set [1], the “pharmacokinetic properties (conclusion in words)” value was “good pharmacokinetic properties”. The Vd in data set [1] (rat, plasma, male, IV 1 mg/kg, read-out: Tissue distribution Vdss) was 6 L/kg.
As usually defined, the IC50 is the concentration that inhibits the measured activity by half. Consider `COc1cccc([C@@H](CN)NC(=O)c2cc(-c3ccc4[nH]nc(C)c4c3)ccn2)c1` [Compound of formula (II)], for which the IC50 on ROCK1 stood at 13 nM; on ROCK2 (1 nM kinase, 20 μM Long S6 Kinase substrate peptide, 33P-ATP, 2 hours room temperature), 2 nM. The “inhibitory activity against ROCK2 (conclusion in words)” value on ROCK2 is recorded as “good inhibitory activity”. The “selectivity for ROCK2 (conclusion in words)” value at ROCK2 (ROCK2 versus ROCK1) is reported as “some selectivity”.
On to `CC(=O)O.COc1cccc(C(CN)NC(=O)c2cc(-c3ccc4[nH]nc(C)c4c3)ccn2)c1` (centres unmarked), for which the Crystal form result in data set [2] (0 day) was “Crystal form B”; in data set [2] (High humidity (relative humidity 75%, open), 5 days), “Crystal form B”; in data set [2] (High humidity (relative humidity 75%, open), 10 days) it was “Crystal form B”; in data set [2] (High humidity (relative humidity 92.5%, open), 5 days), “Crystal form B”; in data set [2] (High humidity (relative humidity 92.5%, open), 10 days) it was “Crystal form B”; in data set [2] (High temperature (60° C., open), 5 days), “Crystal form B”. Besides, the Crystal form entry in data set [2] (High temperature (60° C., open), 10 days) was “Crystal form B”; in data set [2] (High temperature and humidity (40° C. relative humidity 75%, open), first entry, 5 days) it was “Crystal form B”; in data set [2] (High temperature and humidity (40° C. relative humidity 75%, open), first entry, 10 days), “Crystal form B”; in data set [2] (High temperature and humidity (40° C. relative humidity 75%, open), second entry, 5 days) it was “Crystal form B”; in data set [2] (High temperature and humidity (40° C. relative humidity 75%, open), second entry, 10 days) it was “Crystal form B”; in data set [2] (Illumination (total illuminance = 1.2 × 10^6 Lux·hr/near UV = 200 w·hr/m^2, open), 5 days) it was “Crystal form B”. Further, the Crystal form entry in data set [2] (Illumination (total illuminance = 1.2 × 10^6 Lux·hr/near UV = 200 w·hr/m^2, open), 10 days) is on record as “Crystal form B”. Moreover, in data set [2] (high temperature, high humidity and strong illumination conditions), the “solid stability (conclusion in words)” value is on record as “good stability”.

The values above are taken from US11702400B2, “Salt types, crystal forms, and preparation methods for benzopyrazole compounds as RHO kinase inhibitors” (MEDSHINE DISCOVERY INC., priority 2019, dated 2023).
